“And” between values parts separate entries of the source, which are not always exact repeats. Equal entries are not always repeated. The source made the active and inactive calls. No rule for the calls is given here.
Each compound was assayed against Alkaline phosphatase, tissue-nonspecific isozyme (Homo sapiens) (UniProt P05186) (assay: inhibition of tissue-nonspecific alkaline phosphatase – biochemical, selectivity assay for human IAP inhibitor project, SAR follow-up (AID 493141)). Settings: isolated enzyme, CDP-Star luminescence, 30 min.
Chain of Alkaline phosphatase, tissue-nonspecific isozyme (Homo sapiens) (P05186 whole entry, looked up): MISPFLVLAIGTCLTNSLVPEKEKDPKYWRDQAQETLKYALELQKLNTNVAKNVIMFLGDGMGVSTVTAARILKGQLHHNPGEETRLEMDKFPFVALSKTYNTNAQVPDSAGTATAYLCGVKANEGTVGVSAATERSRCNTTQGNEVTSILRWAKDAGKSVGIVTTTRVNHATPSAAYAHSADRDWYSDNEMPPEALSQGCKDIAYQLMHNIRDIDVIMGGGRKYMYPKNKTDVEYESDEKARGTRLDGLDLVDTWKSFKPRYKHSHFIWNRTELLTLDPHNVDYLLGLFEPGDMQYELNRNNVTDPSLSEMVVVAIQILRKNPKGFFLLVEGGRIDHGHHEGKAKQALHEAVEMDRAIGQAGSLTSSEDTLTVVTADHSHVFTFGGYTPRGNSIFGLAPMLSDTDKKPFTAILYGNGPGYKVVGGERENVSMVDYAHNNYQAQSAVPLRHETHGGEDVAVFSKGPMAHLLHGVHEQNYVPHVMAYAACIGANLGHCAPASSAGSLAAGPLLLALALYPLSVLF

Row | Structure (SMILES) | IC50
1 | Cc1ccc2nc(NNC(=O)c3ccc4c(c3)OCCO4)sc2c1 | > 100 µM (inactive)
2 | Oc1ccc(-c2csc(Nc3ccccc3)n2)c(O)c1 | > 100 µM (inactive)
3 | S=C(NCCC(c1ccccc1)c1ccccc1)Nc1ccc(Cl)cc1Cl | > 100 µM (inactive)
4 | COC(=O)/C=C1/S/C(=N/NC(=O)c2ccccc2OC)NC1=O | > 100 µM (inactive)
5 | COc1ccc(C=NN=C2SC(CC(=O)O)C(=O)N2c2ccc(O)cc2)cc1 (stereo not given) | > 100 µM (inactive)
6 | Cc1cccc2sc(NNC(=O)c3ccc4c(c3)OCCO4)nc12 | > 100 µM (inactive)
7 | FC(F)(F)c1cccc(NC(=S)NCCC(c2ccccc2)c2ccccc2)c1 | > 100 µM (inactive)
8 | Cc1ccc2sc(NNC(=O)c3ccc4c(c3)OCCO4)nc2c1C | > 100 µM (inactive)
9 | Oc1ccc(-c2csc(Nc3cccc4ccccc34)n2)cc1O | 22.5 µM and 27.9 µM
10 | CCOc1cc(C=N/N=C2/NC(=O)C(CC(=O)O)S2)ccc1OCc1ccccc1Cl (stereo not given) | > 100 µM (inactive)
11 | Cc1ccc(-c2ccc(/C=N/N=C3\NC(=O)C(CC(=O)O)S3)o2)c([N+](=O)[O-])c1 (stereo not given) | > 100 µM (inactive)
12 | COc1ccc(NC(=S)NCCC(c2ccccc2)c2ccccc2)cc1 | > 100 µM (inactive)
13 | COC(=O)/C=C1\SC(N=Nc2c(O)[nH]c3ccccc23)=NC1=O | > 100 µM (inactive)
14 | Cc1cc(C)cc(Nc2nc(-c3ccc(O)cc3O)cs2)c1 | > 100 µM (inactive)
15 | CC(C)(C)c1ccc(/C=N/N=C2\NC(=O)C(CC(=O)O)S2)cc1 (stereo not given) | > 100 µM (inactive)
16 | Cc1ccc(C)c(Nc2nc(-c3ccc(O)cc3O)cs2)c1 | > 100 µM (inactive)
17 | COc1ccc(/C=N/N=C2/NC(=O)C(CC(=O)O)S2)cc1OC (stereo not given) | > 100 µM (inactive)
18 | COc1cc(/C=N/N=C2\NC(=O)C(CC(=O)O)S2)cc(OC)c1OC (stereo not given) | > 100 µM (inactive)
19 | COc1ccc(-c2csc(Nc3cccc4ccccc34)n2)cc1F | > 100 µM (inactive)
20 | N#CCCn1cc(/C=N/N=C2/NC(=O)C(CC(=O)O)S2)c(-c2ccc(F)cc2)n1 (stereo not given) | > 100 µM (inactive)
21 | COc1cc([N+](=O)[O-])ccc1NC(=S)NCCC(c1ccccc1)c1ccccc1 | > 100 µM (inactive)
22 | COc1cccc(Nc2nc(-c3ccc(O)cc3)cs2)c1 | > 100 µM (inactive)

Row | Structure (SMILES) | IC50
23 | COc1cc([N+](=O)[O-])ccc1NC(=S)NNC(=O)c1ccc2c(c1)OCO2 | > 100 µM (inactive)
24 | COC(=O)/C=C1/S/C(=N/NC(=O)c2ccccc2C)NC1=O | > 100 µM (inactive)
25 | O=[N+]([O-])c1ccc(NC(=S)NCCC(c2ccccc2)c2ccccc2)cc1 | > 100 µM (inactive)
26 | CCOc1cc(/C=N/N=C2\NC(=O)C(CC(=O)O)S2)ccc1O (stereo not given) | > 100 µM (inactive)
27 | COC(=O)/C=C1/S/C(=N/NC(=O)c2ccccc2)NC1=O | > 100 µM (inactive)
28 | COc1ccc(-c2csc(Nc3cccc4ccccc34)n2)cc1 | > 100 µM (inactive)
29 | COC(=O)/C=C1/S/C(=N/NC(=O)c2ccc(OC)cc2)NC1=O | > 100 µM (inactive)
30 | Cc1cccc(Nc2nc(-c3ccc(O)c(C(N)=O)c3)cs2)c1 | > 100 µM (inactive)
31 | COC(=O)C/C=N/N=C1\NC(=O)/C(=C/C(=O)O)S1 | > 100 µM (inactive)
32 | Cc1cc(=O)oc2cc(NC(=S)NCCC(c3ccccc3)c3ccccc3)ccc12 | > 100 µM (inactive)
33 | COC(=O)/C=C1/S/C(=N/N=Cc2ccc(N(C)C)cc2)NC1=O | > 100 µM (inactive)
34 | COC(=O)/C=C1/S/C(=N/NC(=O)c2ccc(Cl)cc2Cl)NC1=O | > 100 µM (inactive)
35 | Cc1ccc(Cl)cc1Nc1nc(-c2ccc(O)c(O)c2)cs1 | 51.4 µM
36 | COc1ccc(C=Nn2c(=S)n(C)c3ccccc32)cc1OC | > 100 µM (inactive)
37 | COC(=O)/C=C1\S/C(=N/N=C/CC(=O)OC)NC1=O | > 100 µM (inactive)
38 | CCc1ccccc1Nc1nc(-c2ccc(O)c(O)c2)cs1 | 30.5 µM and 21.4 µM
39 | COc1ccc(Cl)cc1Nc1nc(-c2ccc(O)c(O)c2)cs1 | > 100 µM (inactive) and 83.7 µM
40 | COc1ccc(/C=N/N=C2\NC(=O)C(CC(=O)O)S2)c(OC)c1 (stereo not given) | > 100 µM (inactive)
41 | COC(=O)/C=C1\S/C(=N/N=C/c2ccc(Cl)cc2)NC1=O | > 100 µM (inactive)
42 | O=C(O)CC1S/C(=N/N=C/c2ccco2)NC1=O (stereo not given) | > 100 µM (inactive)
43 | CCN(CC)S(=O)(=O)c1ccc(-c2csc(=Nc3cccc4ccccc34)n2C)cc1 | > 100 µM (inactive)

Next, values leading:

Row | IC50 | Structure (SMILES)
44 | > 100 µM (inactive) | Cc1ccc(Nc2nc(-c3ccc(O)cc3O)cs2)cc1F
45 | > 100 µM (inactive) | O=S(=O)(Nc1ncccn1)c1ccc(NC(=S)NCCC(c2ccccc2)c2ccccc2)cc1
46 | 59.9 µM | NS(=O)(=O)c1ccc(Nc2nc(-c3ccc(O)cc3O)cs2)cc1
47 | > 100 µM (inactive) | Cc1cccc(C)c1NC(=S)N/N=C/c1ccc(O)c(O)c1O
48 | > 100 µM (inactive) | CCOc1cc(C=NNC(=S)NC2CCCCC2)ccc1O
49 | > 100 µM (inactive) | CC(=NNC(=S)Nc1ccccc1)c1ccc2c(c1)OCO2
50 | > 100 µM (inactive) | Cc1ccc(Nc2nc(-c3ccc(O)cc3O)cs2)cc1C
51 | 17.8 µM | Oc1ccc(Nc2nc(-c3ccc(O)c(O)c3)cs2)cc1
52 | > 100 µM (inactive) | COc1cc(C=NN=C2SC(CC(=O)O)C(=O)N2c2ccc(O)cc2)ccc1O (stereo not given)
53 | > 100 µM (inactive) | Cc1cccc(NC(=S)NNC(=O)c2ccc3c(c2)OCO3)c1
54 | 54.8 µM | Oc1ccc(-c2csc(Nc3ccc(F)cc3)n2)cc1O
55 | > 100 µM (inactive) | CN(C)S(=O)(=O)c1cccc(NC(=S)NN=Cc2ccc(O)c(O)c2O)c1
56 | 41 µM and > 100 µM (inactive) | Cc1c(Cl)cccc1Nc1nc(-c2ccc(O)c(O)c2)cs1
57 | 42.8 µM | O=[N+]([O-])c1ccccc1NC(=S)NN=Cc1ccc(O)c(O)c1
58 | 14.1 µM | O=S(=O)(c1ccc(NC(=S)N/N=C/c2ccc(O)c(O)c2)cc1)N1CCOCC1
59 | > 100 µM (inactive) | COc1cc(C(=O)NNC(=S)Nc2ccc(S(N)(=O)=O)cc2)cc(OC)c1OC

Row | IC50 | Structure (SMILES)
60 | > 100 µM (inactive) | O=S(=O)(c1ccc(NC(=S)N/N=C/c2ccc(O)c(O)c2O)cc1)N1CCOCC1
61 | > 100 µM (inactive) | Cc1cccc(NC(=S)NN=Cc2ccc3c(c2)OCO3)c1
62 | 79.4 µM | Cc1ccc(Nc2nc(-c3ccc(O)c(O)c3)cs2)cc1F
63 | > 100 µM (inactive) | CCOc1ccc(Nc2nc(-c3ccc(O)c(O)c3)cs2)cc1
64 | > 100 µM (inactive) | Cc1ccc(Nc2nc(-c3ccc(O)c(C(N)=O)c3)cs2)cc1
65 | > 100 µM (inactive) | Cn1c(=S)n(N=Cc2ccc3c(c2)OCO3)c2ccccc21
66 | 86.1 µM | O=[N+]([O-])c1ccccc1NC(=S)N/N=C/c1ccc(O)c(O)c1O
67 | > 100 µM (inactive) | COc1cc(C=NNC(=S)Nc2cccc(S(=O)(=O)N(C)C)c2)cc(OC)c1O
68 | 6.26 µM | NS(=O)(=O)c1ccc(Nc2nc(-c3ccc(O)c(O)c3)cs2)cc1
69 | > 100 µM (inactive) | Cc1ccc(Nc2nc(-c3ccc(O)c(O)c3)cs2)cc1
70 | 60.6 µM | Cc1cccc(Nc2nc(-c3ccc(O)c(O)c3)cs2)c1
71 | > 100 µM (inactive) | Cc1ccc(Nc2nc(-c3ccc(O)cc3O)cs2)cc1
72 | > 100 µM (inactive) | COc1cc(C=NNC(=S)Nc2cccc(C(=O)O)c2)ccc1O
73 | > 100 µM (inactive) | COc1cc(C=NNC(=S)Nc2cccc(S(=O)(=O)N(C)C)c2)ccc1O
74 | > 100 µM (inactive) | COc1cc(/C=N/N=C2/SCC(=O)N2c2ccc(O)cc2)ccc1O
75 | > 100 µM (inactive) | COc1ccc(C=NNC(=S)Nc2ccccc2[N+](=O)[O-])cc1O

— PubChem BioAssay AID493141 (Sanford-Burnham Center for Chemical Genomics, 2011)
